Source: BigSolDB 2.1

Cc1cc(C)nc(Nc2ccccc2)n1
solubility (mole fraction)
Settings | 283.15 K | 288.15 K | 293.15 K | 298.15 K | 303.15 K | 308.15 K | 313.15 K | 318.15 K | 323.15 K
in cyclohexane | 0.00583 | 0.00751 | 0.0095 | 0.0123 | 0.0157 | 0.0213 | 0.0304 | 0.0435 | 0.0614
in ethanol | 0.0146 | 0.0175 | 0.0211 | 0.0267 | 0.0332 | 0.0438 | 0.0577 | 0.0785 | 0.112
in isobutanol | 0.0148 | 0.0178 | 0.0236 | 0.028 | 0.0345 | 0.0454 | 0.0652 | 0.0937 | 0.13
in isopropanol | 0.0103 | 0.0126 | 0.016 | 0.0198 | 0.025 | 0.0324 | 0.0429 | 0.0611 | 0.0861
in methanol | 0.0138 | 0.0162 | 0.0193 | 0.0245 | 0.0311 | 0.0418 | 0.0568 | 0.0765 | 0.107
in n-butanol | 0.0193 | 0.0251 | 0.0317 | 0.0389 | 0.0498 | 0.0638 | 0.0813 | 0.112 | 0.145
in n-propanol | 0.0179 | 0.0215 | 0.0264 | 0.0316 | 0.037 | 0.0481 | 0.0682 | 0.0971 | 0.131
